Experimental data published in US20050054620A1, “Paricalcitol as a chemotherapeutic agent” (priority 2003, published 2005).

Tests used:
[1] = Serum calcium in tumor-bearing nude mice; assay type: in vivo; conditions: 100 ng/mouse i.p. 3 days a week, after 4 weeks; control 9.5±0.4, not significantly different (p=0.17)
Method: For the mouse studies, BNX nu/nu nude mice at 8 weeks of age were purchased from Harlan Sprangue Dawley, Inc. (Indianapolis, Ind.) and their care was in accord with the guidelines of Cedars-Sinai Research Institute. They were maintained in pathogen-free conditions with irradiated chow. A total of 1×10^6 HT-29 cells in 0.1 ml of Matrigel (Collaborative Biological Products, Bedford, Mass.) were injected s.c. into bilateral flanks of each mouse, resulting in the formation of two tumors per mouse. The mice were blindly randomized to the experimental and control groups. Treatment was started on the day after the injection of […] cells and continued for 6 weeks. The control mice (five) received diluant only and the experimental mice (five) received paricalcitol [100 ng/day, intraperitoneally, 3 days per week (M,W,F)]. Tumor sizes were measured every week and calculated by the formula: A (length)×B (width)×C (height)×0.5236. After 4 weeks, blood was collected for serum calcium. All mice were euthanized at the end of the study, and the tumors were fixed in 10% neutral buffered formalin and embedded in paraffin for histological analysis. The data were analyzed by Student's t test.
To measure the serum calcium levels in mice, Sigma Diagnostics calcium reagent (Sigma, MO) containing o-cresolphthalein, which complexes with calcium to form a purple colored complex, was used.

RPMI-8226 myeloma cells = conditions: 4 days exposure
24-hydroxylase mRNA = assay: RT-PCR of 24-hydroxylase mRNA, spleen mononuclear cells of VDR knock-out mice; assay type: cell-based; conditions: cells from VDR−/− mice; 10^−8 M
Method: Expression of 24 hydroxylase mRNA was analysed by RT-PCR. The amounts of mRNA were normalized by comparison to 18S RNA. For the PCR analysis, RNA extraction and reverse transcription were done by TRIzole (Invitrogen, Carlsbad, Calif.) and reverse transcriptase (Promega, Madison, Wis.). A twenty-microliter volume of cDNA was prepared from 1 μg of RNA. cDNAs were amplified by PCR with specific primers for 24-hydroxylase and 18S. The cycle number was 25 for 18S and 32 for 24-hydroxylase. PCR product was separated on a 2% agarose gel, stained with ethidium bromide, and photographed.
Isolated spleens were injected with DMEM (Gibco BRL) plus 10% FCS and crushed with forceps to release cells. Mononuclear cells from bone marrow or spleen were separated by Ficoll-Hypaque density centrifugation (Amersham Pharmacia, Uppsala, Sweden).

[2] = tested on: THP-1 myeloid leukemia cells; assay: MTT assay; assay type: cell-based, human; conditions: 4 day exposure
[3] = tested on: U937 cells expressing PML-RARA (PR9); assay: CD14 expression by flow cytometry, PR9 cells with zinc; assay type: cell-based, human; conditions: paricalcitol 0.01 μM; 3 days; compared to PR9 without zinc
Method: (A) NB-4 myeloid leukemia cell lines were treated with paricalcitol (0.1 μM) and/or arsenic trioxide (0.6 μM) for 3 days. Control cells were treated with vehicle alone. Cell lysates were made and used for Western blot which was probed sequentially with antibodies to RARA to detect the fusion protein PML-RARα. (B) U937 cells were stably transfected with either the control MT vector (U937-PMT) or the PML-RARα cDNA under the control of the Zn2^+-inducible murine metallothionein 1 promoter (PR9). Cells were treated either with (+) or without (−) Zn for 2 days. Paricalcitol and/or arsenic trioxide of the indicated doses were added to the cells. Cell lysates were harvested and used for Western blot which was probed with antibodies to RARα to detect PML-RARα fusion protein ([…]). (C) U937-PMT and PR9 cells were treated either with or without Zn and with paricalcitol, and/or arsenic trioxide as indicated for 3 days, and CD14 expression was measured by flow cytometry.
Cell lines used in this study were obtained from American Type Culture Collection (Rockville, Md.) and were maintained according to their recommendations. Myeloid leukemia cell lines (HL-60, NB-4, THP-1, U937), lymphoma cell lines (Raji, Ramos, Daudi, Jurkat, Jeko-1, JUDHL), myeloma cell lines (RPMI-8226, ARH-77, NCI-H929), ovarian cancer cell lines and PC-3 prostate cell line were grown in RPMI 1640 with 10% FCS. […]

HL-60 cells = assay: Morphological analysis, Wright-Giemza stain; assay type: cell-based, human; conditions: 10^−7M, 120 hrs
Method: (A) Cell cycle analysis of HL-60 cells by flow cytometry. HL-60 cells were cultured with paricalcitol (10^−7 M) for 72 hrs, harvested and stained with propidium iodine (PI). Control cells were treated with vehicle alone. Results represent the mean±SD of three independent experiments. (B) HL-60 or NB-4 cells were treated with either paricalcitol (10^−7 M) or 1,25(OH)2D3 (10^−7 M). Cell lysates were prepared after 72 hrs and analyzed by Western blot with a series of antibodies (p21WAF1, p27KIP1, PTEN). Control cells were treated with vehicle alone. The amounts of protein were normalized by comparison to levels of GAPDH. […] Dashed line indicates negative control antibody; black area, CD14 antibody. CD14 positive cells are in the area shown by M2. (D) HL-60 cells were cultured with paricalcitol (10^−7 M) for 120 hrs, fixed and stained with Wright-Giemza stain for morphological analysis.

HT-29 colon cancer cells = assay: MTT assay; assay type: cell-based, human; conditions: 10^−7M, 96 hrs
Method: (§1) HT-29, SW837, SW480 and HCT116 colon cancer cells were treated for 96 hrs with either paricalcitol (10^−7M) 1,25(OH)2D3 (10^−7M) or diluant (control). Growth (% of control) was measured by MTT assay. Results represent the mean±SD of three independent experiments with triplicate dishes. […] were incubated in culture medium for 96 hr in 96 well-plates and […] of MTT solution was added.

SW480 colon cancer cells = assay: MTT assay; assay type: cell-based, human; conditions: 10^−7M, 96 hrs
Method: as §1

[4] = tested on: HCT116 colon cancer cells; assay: MTT assay; assay type: cell-based, human; conditions: 10^−7M, 96 hrs
Method: as §1

SW837 colon cancer cells = assay: MTT assay; assay type: cell-based, human; conditions: 10^−7M, 96 hrs
Method: as §1

## C[C@H](/C=C/[C@H](C)C(C)(C)O)[C@H]1CC[C@H]2/C(=C/C=C3C[C@@H](O)C[C@H](O)C3)CCC[C@]12C [paricalcitol, 19-nor-1,25, (OH)2D3]
[1]
  serum calcium levels: 10.2 ± 0.7 mg/dL
RPMI-8226 myeloma cells
  antiproliferative effect: somewhat less than the effect on NCI-H929 cells
24-hydroxylase mRNA
  induction of 24-hydroxylase: not inducible
[2]
  antiproliferative effect by MTT assay: sensitive
[3]
  differentiation (CD14) of PR9 cells cultured with zinc: partially blocked
HL-60 cells
  morphological examination: monocytic differentiation
HT-29 colon cancer cells
  growth by MTT assay: sensitive
SW480 colon cancer cells
  growth by MTT assay: either only slightly sensitive or resistant
[4]
  growth by MTT assay: either only slightly sensitive or resistant
SW837 colon cancer cells
  growth by MTT assay: sensitive
